How the values were obtained:
[1] = tested on: rhesus rotavirus (RRV); assay: Prevention of rotavirus infection in mouse pups with Neu5Ac, methionine, formula-1 (5.7); type: in vivo; conditions: for Not sick (number) / Sick Rate(%): 20 μl oral at P1, RRV at P2; for Sick (number): 20 μl oral at P1, RRV at P2, 3 weeks; for Odds Ratio: vs saline
[2] = type: in vivo, chicken
[3] = tested on: 2009H1N1 influenza virus (California strain); type: in vivo, chicken
[4] = tested on: rhesus rotavirus (RRV); assay: Prevention of rotavirus infection in mouse pups with methionine-Zn (8.1); type: in vivo
[5] = tested on: A/PR/8/34(H1N1) influenza virus strain; assay: Treatment of influenza infection of newborn mice (15.2); type: in vivo, mouse; conditions: virus at P5, i.p. treatment at day 2, 3, 4 and 5; kept 10 days
Experimental: Four groups of newborn bulb/c pups were inoculated at day 5 (P5) via nasal and oral administration of 20 μl (microliter) of the A/PR/8/34(H1N1) influenza virus strain (titer: 1:256, diluted 200 times with saline); and were treated at day 2, 3, 4 and 5 via intraperitoneal injection with 100 μl of saline containing 1) saline alone (n=10); 2) 150 microgram of Neu5AcMe; 3) 30 μl of 2% diethyl disulfide plus 200 μg of the Neu5AcMe (n=10); and 4) 30 μl of 2% diethyl disulfide plus 200 μg of the Neu5Ac (n=10). Mice were kept for 10 days after treatment.

[6] = pretreated at E16, virus next day

In the case of `CC(=O)N[C@H]1[C@H]([C@H](O)[C@H](O)CO)OC(O)(C(=O)O)C[C@@H]1O` (some centres unmarked) [Neu5Ac, N-Acetylneuraminic acid], the “Not sick (number)” value [1] is reported as 10, the “Sick Rate(%)” value [1] is reported as 23.1% and the “Sick (number)” value [1] is reported as 3. For the same compound, the “Odds Ratio” value [1] was 0.07, the “side effect of the H5N1 vaccine candidate (still sick)” value ([2]; day 3, saline 87.5%) was 12.5% and the “Odd Ratio” value ([2]; in vivo) was 0.02. The “sick chickens recovered and looked normal” value ([2]; in vivo, po) was 7/8.

With `CCSSCC` [Diethyl disulfide] the “Not sick (number)” value [3, 6] was 5, the “Sick (number)” value [3, 6] was 1 and the “Sick Rate(%)” value [3, 6] was 17%. The “Odds Ratio” value ([3]; vs saline) was 0.04.

For `CSCC[C@H](N)C(=O)O` [Metnionine, Methionine], the “Not sick (number)” value [1] was 9, the “Sick Rate(%)” value [1] was 25.0% and the “Sick (number)” value [1] was 3. The “Odds Ratio” value [1] was 0.07.

For “Methionine-Zinc (Zn) complex [Metnionine-Zn]”, the “Not sick (number)” value ([4]; 20 μl oral at P1, RRV at P2) was 6, the “Sick Rate(%)” value ([4]; 20 μl oral at P1, RRV at P2) was 14% and the “Sick (number)” value ([4]; 20 μl oral at P1, RRV at P2, 3 weeks) was 1. For the same compound, the “Odds Ratio” value ([4]; vs saline) was 0.03.

For `COC(=O)[C@]1(O)CC(O)[C@@H](NC(C)=O)C(C(O)[C@H](O)CO)O1` (some centres unmarked) [Neu5AcMe, N-Acetylneuraminic acid methyl ester], the pups survived [5] was 50%.

Reference: US10342812B2, “Glycan-based drugs, therapies and biomarkers” (priority 2008, dated 2019)
